Data on 13 molecules can be found in US12398132B2, “Derivatives of 4-(imidazo[1,2-a]pyridin-3-yl)-n-(pyridinyl)pyrimidin-2-amine as therapeutic agents” (AUCENTRA THERAPEUTICS PTY LTD, priority 2019, dated 2025).

Structures are written as SMILES. Positions count from the first letter of the chain named.

For one assay, the system named is U937. In words: Proliferation assay (resazurin/MTT), U937. It counts as cell-based. Particulars: Homo sapiens, U-937, read-out: 72 h Growth inhibition GI50, U937 cells.
The target of another assay is T1, FLT3(ITD) (Homo sapiens, UniProt P36888).
T1 sequence (P36888 1-993): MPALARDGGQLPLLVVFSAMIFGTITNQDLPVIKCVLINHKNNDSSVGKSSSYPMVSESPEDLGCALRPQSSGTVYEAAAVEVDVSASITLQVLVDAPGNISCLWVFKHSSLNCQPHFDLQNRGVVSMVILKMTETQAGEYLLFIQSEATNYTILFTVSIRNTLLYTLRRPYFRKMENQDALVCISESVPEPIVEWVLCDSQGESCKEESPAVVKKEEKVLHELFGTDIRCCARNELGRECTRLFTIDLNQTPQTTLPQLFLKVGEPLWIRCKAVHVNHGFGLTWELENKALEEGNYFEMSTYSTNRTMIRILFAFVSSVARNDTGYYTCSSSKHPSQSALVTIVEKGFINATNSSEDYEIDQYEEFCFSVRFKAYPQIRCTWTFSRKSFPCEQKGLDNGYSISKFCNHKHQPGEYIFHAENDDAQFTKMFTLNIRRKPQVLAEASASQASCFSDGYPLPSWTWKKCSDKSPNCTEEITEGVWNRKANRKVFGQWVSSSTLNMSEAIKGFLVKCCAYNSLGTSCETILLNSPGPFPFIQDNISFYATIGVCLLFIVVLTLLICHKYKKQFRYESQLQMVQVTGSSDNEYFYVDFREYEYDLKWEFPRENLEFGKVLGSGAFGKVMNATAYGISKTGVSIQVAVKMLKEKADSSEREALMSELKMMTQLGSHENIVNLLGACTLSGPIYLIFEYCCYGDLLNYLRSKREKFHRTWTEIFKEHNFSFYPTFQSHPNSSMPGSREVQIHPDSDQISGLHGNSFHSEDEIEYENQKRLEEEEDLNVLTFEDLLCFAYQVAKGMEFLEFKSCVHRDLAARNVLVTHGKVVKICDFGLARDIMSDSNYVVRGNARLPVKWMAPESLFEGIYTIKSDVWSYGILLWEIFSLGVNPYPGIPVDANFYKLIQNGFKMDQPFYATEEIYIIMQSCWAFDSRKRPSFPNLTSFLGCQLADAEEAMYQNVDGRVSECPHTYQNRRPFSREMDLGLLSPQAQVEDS
In words: ADP Glo kinase assay, FLT3(ITD). It counts as biochemical. Particulars: apparent Ki calculated from Km (ATP) and IC50, read-out: FLT3 inhibition Ki.

In the next assay the test system is MV-4-11. Nature of the assay: Proliferation assay (resazurin/MTT), MV-4-11. It counts as cell-based. Particulars: Homo sapiens, MV4-11, read-out: 72 h Growth inhibition GI50, MV-4-11 cells. A general note: The colour change of resazurin is a common sign of viable cells or microbes.
Another assay addresses CDK2E1 (Homo sapiens, UniProt P24941). To be noted: 1 µM.
The next assay deals with T2, FLT3(D835Y) (Homo sapiens, UniProt P36888, D835Y).
T2 sequence (P36888 27-993 D835Y): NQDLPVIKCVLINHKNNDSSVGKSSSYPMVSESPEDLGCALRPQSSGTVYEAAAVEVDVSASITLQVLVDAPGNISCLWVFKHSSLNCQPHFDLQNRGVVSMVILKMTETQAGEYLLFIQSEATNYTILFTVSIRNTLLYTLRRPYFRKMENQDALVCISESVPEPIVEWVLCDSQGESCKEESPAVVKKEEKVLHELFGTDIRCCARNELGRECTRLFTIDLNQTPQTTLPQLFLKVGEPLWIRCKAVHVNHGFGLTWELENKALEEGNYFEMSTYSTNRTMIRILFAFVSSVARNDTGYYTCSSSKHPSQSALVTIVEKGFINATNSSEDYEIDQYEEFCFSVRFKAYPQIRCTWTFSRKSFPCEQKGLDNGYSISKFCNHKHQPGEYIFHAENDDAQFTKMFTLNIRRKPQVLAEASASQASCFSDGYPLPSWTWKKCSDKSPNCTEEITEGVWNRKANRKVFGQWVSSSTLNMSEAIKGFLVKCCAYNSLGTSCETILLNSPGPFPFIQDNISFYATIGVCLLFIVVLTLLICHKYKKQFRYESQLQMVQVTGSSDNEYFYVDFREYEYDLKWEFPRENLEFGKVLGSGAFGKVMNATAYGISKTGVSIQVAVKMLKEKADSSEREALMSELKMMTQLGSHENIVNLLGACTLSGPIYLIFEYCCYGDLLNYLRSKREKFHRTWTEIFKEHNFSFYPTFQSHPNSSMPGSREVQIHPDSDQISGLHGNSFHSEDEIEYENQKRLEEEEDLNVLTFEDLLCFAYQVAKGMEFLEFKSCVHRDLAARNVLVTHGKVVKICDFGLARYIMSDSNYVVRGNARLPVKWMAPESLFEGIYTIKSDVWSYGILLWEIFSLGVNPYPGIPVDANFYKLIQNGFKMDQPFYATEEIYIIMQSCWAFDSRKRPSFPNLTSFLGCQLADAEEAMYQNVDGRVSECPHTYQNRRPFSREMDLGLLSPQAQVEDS
Nature of the assay: ADP Glo kinase assay, FLT3(D835Y). The class given is biochemical. Particulars: apparent Ki calculated from Km (ATP) and IC50, read-out: FLT3 inhibition Ki.

In a further assay the target is T3, FLT3(WT) (Homo sapiens, UniProt P36888).
T3 sequence (P36888 27-993): T2 sequence (P36888 27-993 D835Y) with Y809D
Nature of the assay: ADP Glo kinase assay, FLT3(WT). The class given is biochemical. To be noted: apparent Ki calculated from Km (ATP) and IC50, read-out: FLT3 inhibition Ki.

A further assay addresses CDK9/CyclinT1 (Homo sapiens, UniProt P50750). In words: ADP Glo kinase assay, CDK9/CyclinT1. The class given is biochemical. Particulars: CDK9T1; apparent Ki calculated from Km (ATP) and IC50; read-out: CDK inhibition Ki.

CDK9/CyclinT1, sequence (P50750 whole entry, species assumed): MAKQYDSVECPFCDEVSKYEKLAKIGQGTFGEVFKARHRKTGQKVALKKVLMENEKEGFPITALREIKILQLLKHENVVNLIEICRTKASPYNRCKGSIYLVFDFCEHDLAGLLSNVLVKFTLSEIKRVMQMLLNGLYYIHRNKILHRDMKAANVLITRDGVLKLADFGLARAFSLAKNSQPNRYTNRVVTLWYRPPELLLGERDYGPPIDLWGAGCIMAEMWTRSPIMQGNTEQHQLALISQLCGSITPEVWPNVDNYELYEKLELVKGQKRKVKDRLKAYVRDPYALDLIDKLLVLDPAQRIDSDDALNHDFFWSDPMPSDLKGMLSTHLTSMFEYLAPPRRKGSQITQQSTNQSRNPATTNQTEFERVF
CDK9/CyclinT1, sequence (O60563 whole entry partner, species assumed): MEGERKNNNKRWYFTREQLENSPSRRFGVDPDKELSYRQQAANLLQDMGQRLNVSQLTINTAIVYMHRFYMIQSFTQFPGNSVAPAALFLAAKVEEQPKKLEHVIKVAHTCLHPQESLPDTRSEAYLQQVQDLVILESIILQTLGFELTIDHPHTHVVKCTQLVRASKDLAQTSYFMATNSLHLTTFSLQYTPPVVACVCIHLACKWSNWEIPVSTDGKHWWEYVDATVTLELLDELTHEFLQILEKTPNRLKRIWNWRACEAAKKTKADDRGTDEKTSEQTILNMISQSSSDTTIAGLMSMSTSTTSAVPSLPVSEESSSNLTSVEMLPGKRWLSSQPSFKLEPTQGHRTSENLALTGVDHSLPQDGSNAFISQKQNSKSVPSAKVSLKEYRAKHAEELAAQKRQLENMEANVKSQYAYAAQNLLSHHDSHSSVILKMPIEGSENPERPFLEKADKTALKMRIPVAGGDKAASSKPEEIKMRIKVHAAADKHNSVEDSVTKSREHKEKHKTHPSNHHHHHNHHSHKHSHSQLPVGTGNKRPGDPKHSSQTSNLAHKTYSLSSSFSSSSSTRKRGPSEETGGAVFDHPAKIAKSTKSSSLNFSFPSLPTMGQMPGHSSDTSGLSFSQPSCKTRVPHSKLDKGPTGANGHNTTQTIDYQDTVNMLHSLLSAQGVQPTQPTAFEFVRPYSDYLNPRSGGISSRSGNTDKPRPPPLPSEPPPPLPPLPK
Method for CDK9/CyclinT1: Inhibition of FLT3(WT), FLT3(ITD) and FLT3(D835Y) and CDKs were determined using ADP Glo Kinase assays (Promega Corporation, Madison, WI, USA). […] Similarly, kinase reaction for CDK4/D1 and CDK6/D3 was performed with reaction buffer (40 nM Tris base pH 7.5, 20 mM MgCl2, 0.4 mM DTT), 0.1 mg/ml BSA and RB-CTF substrate (retinoblastoma protein1 C-terminal fraction). For CDK9/CyclinT1, the kinase reaction was performed with the standard assay buffer and Kinase Dilution Buffer and RBER-IRStide substrate. Half-maximal inhibition (IC50) values were calculated using a 4-parameter logistic non-linear regression model with Graphpad prism (Version 6.0). Apparent inhibition constants (Ki) values were calculated from Km (ATP) and IC50 values for the respective kinases.
Method for FLT3(D835Y): Inhibition of FLT3(WT), FLT3(ITD) and FLT3(D835Y) and CDKs were determined using ADP Glo Kinase assays (Promega Corporation, Madison, WI, USA). […] The kinase reactions are run for an optimised time period (FLT3-WT: 120 min, FLT3-ITD: 80 min, FLT3-D835Y: 100 min) at room temperature and then the reaction was stopped by adding 5 μL of ADP Glo reagent. […] Positive and negative controls were performed in 0.5% DMSO in the presence and absence of each FLT3 kinase, respectively. […] Half-maximal inhibition (IC50) values were calculated using a 4-parameter logistic non-linear regression model with Graphpad prism (Version 6.0). Apparent inhibition constants (Ki) values were calculated from Km (ATP) and IC50 values for the respective kinases.

By GI50 is commonly meant the concentration at which growth is held to half of that of the control. On to `CN(C)C1CCN(c2ccc(Nc3ncc(F)c(-c4cnc5ccc(-c6ccccc6)cn45)n3)nc2)CC1` [Cmpd 69, N-(5-(4-(Dimethylamino)piperidin-1-yl)pyridin-2-yl)-5-fluoro-4-(6-phenylimidazo[1,2-a]pyridin-3-yl)pyrimidin-2-amine], for which the GI50 turned out to be 946 nM in the assay with U937 and 18 nM with MV-4-11. Also, the Ki at FLT3(ITD) is 16 nM.

On to `CN1CCN(c2ccc(Nc3nccc(-c4cnc5ccc(-c6cnn(C)c6)cn45)n3)nc2)CC1` [Cmpd 62, 4-(6-(1-Methyl-1H-pyrazol-4-yl)imidazo[1,2-a]pyridin-3-yl)-N-(5-(4-methylpiperazin-1-yl)pyridin-2-yl)pyrimidin-2-amine], for which the GI50 in the assay on U937 was 773 nM; in the assay with MV-4-11, 6 nM. In addition, the Ki at FLT3(ITD) is 29 nM.

On to `Cc1ccc(Nc2nccc(-c3cnc4ccccn34)n2)nc1` [Cmpd 55, 4-(Imidazo[1,2-a]pyridin-3-yl)-N-(5-methylpyridin-2-yl)pyrimidin-2-amine], for which the GI50 came to 471 nM in the assay with U937 and 49 nM in the assay with MV-4-11. Moreover, at FLT3(ITD), the Ki is 44 nM.

Consider `CC(=O)N1CCN(c2ccc(Nc3nccc(-c4cnc5ccc(-c6cnn(C7CCN(C(=O)OC(C)(C)C)CC7)c6)cn45)n3)nc2)CC1` [Cmpd 60, Tert-butyl 4-(4-(3-(2-((5-(4-acetylpiperazin-1-yl)pyridin-2-yl)amino)pyrimidin-4-yl)imidazo[1,2-a]pyridin-6-yl)-1H-pyrazol-1-yl)piperidine-1-carboxylate], for which the GI50 in the assay with U937 came out at 243 nM; in the assay on MV-4-11, 19 nM. Moreover, the Ki at FLT3(ITD) was 84 nM.

In the case of `CC(=O)N1CCN(c2ccc(Nc3nccc(-c4cnc5ccc(-c6ccc(C)o6)cn45)n3)nc2)CC1` [Cmpd 61, 1-(4-(6-((4-(6-(5-Methylfuran-2-yl)imidazo[1,2-a]pyridin-3-yl)pyrimidin-2-yl)amino)pyridin-3-yl)piperazin-1-yl)ethan-1-one], the GI50 is 199 nM in the assay with U937 and < 0.1 nM in the assay on MV-4-11. Besides, the Ki at FLT3(ITD) is 4 nM.

On CDK2E1, `Clc1ccc(Nc2nccc(-c3cnc4ccccn34)n2)nc1` [Cmpd 52, N-(5-Chloropyridin-2-yl)-4-(imidazo[1,2-a]pyridin-3-yl)pyrimidin-2-amine] showed an activity of 52%. For the same molecule, the GI50 with U937 was 691 nM; with MV-4-11, 213 nM. The results for the Ki on FLT3(D835Y), at FLT3(WT) and at FLT3(ITD) were 584 nM, > 500 nM and 421 nM, respectively.

At CDK2E1, `CN1CCN(c2ccc(Nc3nccc(-c4cnc5ccc(-c6cncnc6)cn45)n3)nc2)CC1` [Cmpd 66, N-(5-(4-Methylpiperazin-1-yl)pyridin-2-yl)-4-(6-(pyrimidin-5-yl)imidazo[1,2-a]pyridin-3-yl)pyrimidin-2-amine] showed an activity of 80%. The GI50 was determined as 1090 nM with U937 and 174 nM with MV-4-11. In addition, the Ki on FLT3(ITD) was 116 nM; on CDK9/CyclinT1, 345 nM.

Take `CC(C)(C)OC(=O)N1CC=C(c2ccc(Nc3nccc(-c4cnc5ccccn45)n3)nc2)CC1` [Cmpd 64, Tert-butyl 6-((4-(imidazo[1,2-a]pyridin-3-yl)pyrimidin-2-vi)amino)-3′,6′-dihydro-[3,4′-bipyridine]-1′(2′H)-carboxylate]: the concentration for 50% growth inhibition (GI50) in the assay with U937 was 367 nM; in the assay on MV-4-11, 152 nM. Moreover, the Ki on FLT3(ITD) is 308 nM.

On to `CC(=O)N1CCN(c2ccc(Nc3nccc(-c4cnc5ccc(C6=CCN(C(=O)OC(C)(C)C)CC6)cn45)n3)nc2)CC1` [Cmpd 63, Tert-butyl 4-(3-(2-((5-(4-acetylpiperazin-1-yl)pyridin-2-yl)amino)pyrimidin-4-yl)imidazo[1,2-a]pyridin-6-yl)-3,6-dihydropyridine-1(2H)-carboxylate], for which the values for the GI50 in the assay with U937 and with MV-4-11 were 436 nM and 35 nM, respectively. In addition, the Ki on FLT3(ITD) is 132 nM.

As for `CCN1CCN(Cc2ccc(Nc3ncc(F)c(-c4cnc5ccc(-c6ccccc6)cn45)n3)nc2)CC1` [Cmpd 68, N-(5-((4-Ethylpiperazin-1-yl)methyl)pyridin-2-yl)-5-fluoro-4-(6-phenylimidazo[1,2-a]pyridin-3-yl)pyrimidin-2-amine], the GI50 in the assay with U937 came to 600 nM; in the assay on MV-4-11 it was 117 nM. Besides, the Ki on FLT3(ITD) was 70 nM.

With `CC(=O)N1CCN(c2ccc(Nc3nccc(-c4cnc5ccc(-c6cc[nH]n6)cn45)n3)nc2)CC1` [Cmpd 57, 1-(4-(6-((4-(6-(1H-Pyrazol-3-yl)imidazo[1,2-a]pyridin-3-yl)pyrimidin-2-yl)amino)pyridin-3-yl)piperazin-1-yl)ethan-1-one], the GI50 came to 728 nM in the assay on U937 and 4 nM with MV-4-11. Besides, the Ki at FLT3(ITD) is 6 nM.

On to `CN1CCN(c2ccc(Nc3nccc(-c4cnc5ccc(-c6cccnc6)cn45)n3)nc2)CC1` [Cmpd 65, N-(5-(4-Methylpiperazin-1-yl)pyridin-2-yl)-4-(6-(pyridin-3-yl)imidazo[1,2-a]pyridin-3-yl)pyrimidin-2-amine], for which the GI50 worked out at 382 nM in the assay on U937 and 32 nM with MV-4-11. Moreover, the Ki at FLT3(ITD) is 30 nM.

For the molecule `CC(=O)N1CCN(c2ccc(Nc3nccc(-c4cnc5ccc(-c6cnn(C(F)F)c6)cn45)n3)nc2)CC1` [Cmpd 59], the GI50 in the assay on U937 was 462 nM; in the assay with MV-4-11, 8 nM. Besides, the Ki at FLT3(ITD) was 18 nM.
